Measured values taken from US20260356804A1, “SODIUM CHANNEL BLOCKING COMPOUNDS, DERIVATIVES THEREOF, AND METHODS OF THEIR USE” (LATIGO BIOTHERAPEUTICS, INC., priority 2022, published 2026).
Counter-ions that a name gives are not always drawn. Like-named read-outs stand apart in the source and are kept apart here.

Target: T1, human Nav1.8/b3 (Homo sapiens, UniProt Q9Y5Y9)
T1 construct: expressed in transfected cells; host or cells: CHO
Assay: Compound Profiling Human NaV1.8/β3 Cell Line—SyncroPatch384PE Assay (automated patch clamp, stably transfected CHO cells)
Type: cell-based
Settings: Nav1.8/b3 CHO cells

[1] = P1 (IC50, resting state block), P1 measurement, resting state block, holding potential −120 mV, fourth set of compounds
[2] = P2 (IC50, inactivated state block), P2 measurement, inactivated state block, inactivation step −35 mV 10 sec, fourth set of compounds
[3] = P1 (IC50, resting state block), P1 measurement, resting state block, holding potential −120 mV, second set of compounds
[4] = P2 (IC50, inactivated state block), P2 measurement, inactivated state block, inactivation step −35 mV 10 sec, second set of compounds
[5] = P1 (IC50, resting state block), P1 measurement, resting state block, holding potential −120 mV, third set of compounds
[6] = P2 (IC50, inactivated state block), P2 measurement, inactivated state block, inactivation step −35 mV 10 sec, third set of compounds
[7] = P1 (IC50, resting state block), P1 measurement, resting state block, holding potential −120 mV, first set of compounds
[8] = P2 (IC50, inactivated state block), P2 measurement, inactivated state block, inactivation step −35 mV 10 sec, first set of compounds

T1 sequence (Q9Y5Y9 whole entry): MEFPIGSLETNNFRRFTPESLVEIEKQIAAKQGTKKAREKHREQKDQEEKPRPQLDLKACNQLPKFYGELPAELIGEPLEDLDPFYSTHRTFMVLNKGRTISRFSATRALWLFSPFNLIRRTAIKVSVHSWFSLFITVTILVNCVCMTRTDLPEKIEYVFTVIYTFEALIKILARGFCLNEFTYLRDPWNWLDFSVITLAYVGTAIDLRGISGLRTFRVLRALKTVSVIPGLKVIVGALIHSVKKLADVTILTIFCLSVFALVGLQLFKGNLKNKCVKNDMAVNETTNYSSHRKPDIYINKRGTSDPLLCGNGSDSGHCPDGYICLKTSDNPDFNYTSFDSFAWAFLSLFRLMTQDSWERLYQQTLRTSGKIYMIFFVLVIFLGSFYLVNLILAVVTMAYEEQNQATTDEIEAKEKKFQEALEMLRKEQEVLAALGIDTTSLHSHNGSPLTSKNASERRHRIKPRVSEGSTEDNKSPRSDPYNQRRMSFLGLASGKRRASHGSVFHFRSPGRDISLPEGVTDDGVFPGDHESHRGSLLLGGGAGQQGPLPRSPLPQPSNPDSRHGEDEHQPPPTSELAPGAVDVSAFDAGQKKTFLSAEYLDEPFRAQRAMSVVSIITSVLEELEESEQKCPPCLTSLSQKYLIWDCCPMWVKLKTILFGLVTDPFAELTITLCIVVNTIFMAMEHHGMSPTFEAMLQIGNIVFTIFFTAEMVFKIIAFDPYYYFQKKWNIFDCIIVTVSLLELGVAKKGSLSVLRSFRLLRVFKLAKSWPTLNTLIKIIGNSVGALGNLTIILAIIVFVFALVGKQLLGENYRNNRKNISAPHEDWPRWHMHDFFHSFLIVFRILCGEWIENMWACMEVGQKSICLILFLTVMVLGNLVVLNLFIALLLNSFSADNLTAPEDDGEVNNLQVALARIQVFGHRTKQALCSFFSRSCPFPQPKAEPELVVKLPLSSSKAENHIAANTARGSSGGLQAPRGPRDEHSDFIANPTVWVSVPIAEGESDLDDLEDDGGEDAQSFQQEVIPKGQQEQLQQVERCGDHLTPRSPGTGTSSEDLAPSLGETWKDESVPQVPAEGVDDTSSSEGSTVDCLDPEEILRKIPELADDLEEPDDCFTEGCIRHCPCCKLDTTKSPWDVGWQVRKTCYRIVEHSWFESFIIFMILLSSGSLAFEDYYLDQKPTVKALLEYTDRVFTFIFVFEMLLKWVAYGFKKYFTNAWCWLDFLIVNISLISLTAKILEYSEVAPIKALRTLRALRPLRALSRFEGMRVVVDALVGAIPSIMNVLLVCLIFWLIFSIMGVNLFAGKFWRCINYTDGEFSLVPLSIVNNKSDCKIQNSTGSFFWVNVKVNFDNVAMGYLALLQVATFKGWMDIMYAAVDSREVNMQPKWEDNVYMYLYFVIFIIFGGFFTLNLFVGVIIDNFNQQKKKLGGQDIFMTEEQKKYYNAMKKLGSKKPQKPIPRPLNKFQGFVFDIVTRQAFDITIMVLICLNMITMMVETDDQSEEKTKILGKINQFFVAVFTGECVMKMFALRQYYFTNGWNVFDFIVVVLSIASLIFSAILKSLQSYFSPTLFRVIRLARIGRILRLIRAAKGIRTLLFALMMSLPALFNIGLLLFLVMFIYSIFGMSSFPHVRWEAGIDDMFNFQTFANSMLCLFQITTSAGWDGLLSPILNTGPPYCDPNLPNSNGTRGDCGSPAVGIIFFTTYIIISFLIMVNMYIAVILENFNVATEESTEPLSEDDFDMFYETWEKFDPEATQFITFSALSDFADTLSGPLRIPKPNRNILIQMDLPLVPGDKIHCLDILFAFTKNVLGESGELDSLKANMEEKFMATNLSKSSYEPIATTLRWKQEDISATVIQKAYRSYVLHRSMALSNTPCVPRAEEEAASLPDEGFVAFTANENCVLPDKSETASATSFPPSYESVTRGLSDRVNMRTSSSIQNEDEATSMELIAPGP
T1 sequence (Q9NY72 23-215 partner): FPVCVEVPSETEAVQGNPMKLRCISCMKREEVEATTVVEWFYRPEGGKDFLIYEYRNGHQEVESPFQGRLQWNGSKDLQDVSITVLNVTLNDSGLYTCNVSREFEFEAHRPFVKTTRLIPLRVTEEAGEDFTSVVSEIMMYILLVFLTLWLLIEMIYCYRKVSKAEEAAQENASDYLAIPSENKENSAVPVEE

For Cc1nc(F)ccc1Oc1ncc(C(F)(F)F)c(C)c1C(=O)Nc1cccc([S@@](C)(=O)=NC(=O)[C@@H]2CCCN2)c1 [Example 22D, N-(3-((R)—N-(L-prolyl)-S-methylsulfonimidoyl)phenyl)-2-((6-fluoro-2-methylpyridin-3-yl)oxy)-4-methyl-5-(trifluoromethyl)nicotinamide], the IC50 [1] was < 5 nM and the IC50 [2] was < 5 nM.
Cc1nc(F)ccc1Oc1ccc(C(F)(F)F)c(C)c1C(=O)Nc1cccc([S@@](C)(=O)=NC(=O)[C@H](C)O)c1 [Example 23B] was tested, and the IC50 [3] was < 5 nM and the IC50 [4] was < 5 nM.
In the case of COc1cc(C#N)ccc1Oc1ncc(-c2ccc(C(F)F)cc2)c(C)c1C(=O)Nc1cccc([S@](C)(=N)=O)c1 [Example 23C, (R)-2-(4-cyano-2-methoxyphenoxy)-5-(4-(difluoromethyl)phenyl)-4-methyl-N-(3-(S-methylsulfonimidoyl)phenyl)nicotinamide], the IC50 [5] is reported as < 5 nM and the IC50 [6] is reported as < 5 nM.
In the case of Cc1nc(F)ccc1Oc1ncc(C(F)(F)F)c(C)c1C(=O)Nc1cccc([S@@](C)(=O)=NC(=O)[C@H]2CCCN2)c1 [Example 23D, N-(3-((R)—N-(D-prolyl)-S-methylsulfonimidoyl)phenyl)-2-((6-fluoro-2-methylpyridin-3-yl)oxy)-4-methyl-5-(trifluoromethyl)nicotinamide formate], the IC50 [1] is reported as < 5 nM and the IC50 [2] is reported as < 5 nM.
In the case of Cc1nc(F)ccc1Oc1ccc(C(F)(F)F)c(C)c1C(=O)Nc1cccc([S@@](C)(=O)=NC(=O)[C@@H](C)N)c1 [Example 24B], the IC50 [3] is reported as < 5 nM and the IC50 [4] is reported as < 5 nM.
COc1cc(C#N)ccc1Oc1ncc(Br)c(C)c1C(=O)Nc1cccc([S@](C)(=N)=O)c1 [Example 24C, (R)-5-bromo-2-(4-cyano-2-methoxyphenoxy)-4-methyl-N-(3-(S-methylsulfonimidoyl)phenyl)nicotinamide] was tested, and the IC50 [5] was < 5 nM and the IC50 [6] was < 5 nM.
For Cc1nc(F)ccc1Oc1nnc(C(F)(F)F)c(C)c1C(=O)Nc1cccc([S@@](C)(=O)=NC(=O)CN)c1 [Example 24D, (R)-3-((6-fluoro-2-methylpyridin-3-yl)oxy)-N-(3-(N-glycyl-S-methylsulfonimidoyl)phenyl)-5-methyl-6-(trifluoromethyl)pyridazine-4-carboxamide], the IC50 [1] was 5 to 50 nM and the IC50 [2] was 5 to 50 nM.
For CNCC(=O)N=[S@](C)(=O)c1cccc(NC(=O)c2c(Oc3ccc(F)nc3C)ccc(C(F)(F)F)c2C)c1 [Example 25B], the IC50 [3] was < 5 nM and the IC50 [4] was < 5 nM.
With COc1cc(C#N)ccc1Oc1ncc(Cl)c(C)c1C(=O)Nc1cccc(S(C)(=N)=O)c1 (stereo not drawn) [Example 25C, 5-chloro-2-(4-cyano-2-methoxyphenoxy)-4-methyl-N-(3-(S-methylsulfonimidoyl)phenyl)nicotinamide] the IC50 [5] was < 5 nM and the IC50 [6] was < 5 nM.
CNCC(=O)N=[S@](C)(=O)c1cccc(NC(=O)c2c(Oc3ccc(F)nc3C)nnc(C(F)(F)F)c2C)c1 [Example 25D, (R)-3-((6-fluoro-2-methylpyridin-3-yl)oxy)-5-methyl-N-(3-(S-methyl-N-(methylglycyl)sulfonimidoyl)phenyl)-6-(trifluoromethyl)pyridazine-4-carboxamide] was tested, and the IC50 [1] was < 5 nM and the IC50 [2] was < 5 nM.
With Cc1nc(F)ccc1Oc1ccc(C(F)(F)F)c(C)c1C(=O)Nc1cccc([S@@](C)(=O)=NC(=O)CN)c1 [Example 26B] the IC50 [3] was < 5 nM and the IC50 [4] was < 5 nM.
With COc1cc(C#N)ccc1Oc1ncc(Cl)c(C)c1C(=O)Nc1cccc([S@](C)(=N)=O)c1 [Example 26C, (R)-5-chloro-2-(4-cyano-2-methoxyphenoxy)-4-methyl-N-(3-(S-methylsulfonimidoyl)phenyl)nicotinamide] the IC50 [5] was 5 to 50 nM and the IC50 [6] was 5 to 50 nM.
In the case of Cc1nc(F)ccc1Oc1nnc(C(F)(F)F)c(C)c1C(=O)Nc1cccc([S@@](C)(=O)=NC(=O)[C@@H]2CCCN2)c1 [Example 26D, N-(3-((R)—N-(L-prolyl)-S-methylsulfonimidoyl)phenyl)-3-((6-fluoro-2-methylpyridin-3-yl)oxy)-5-methyl-6-(trifluoromethyl)pyridazine-4-carboxamide], the IC50 [1] is reported as < 5 nM and the IC50 [2] is reported as < 5 nM.
With Cc1nc(F)ccc1Oc1ccc(C(F)(F)F)c(C)c1C(=O)Nc1cccc([S@@](C)(=O)=NC(=O)CO)c1 [Example 27B] the IC50 [3] was < 5 nM and the IC50 [4] was < 5 nM.
COc1cc(C#N)ccc1Oc1ncc(-c2cn(C)nc2C)c(C)c1C(=O)Nc1cccc([S@](C)(=N)=O)c1 [Example 27C, (R)-2-(4-cyano-2-methoxyphenoxy)-5-(1,3-dimethyl-1H-pyrazol-4-yl)-4-methyl-N-(3-(S-methylsulfonimidoyl)phenyl)nicotinamide] gave an IC50 [5] of 50 to 100 nM and an IC50 [6] of 50 to 100 nM.
With Cc1nc(F)ccc1Oc1ncc(C(F)(F)F)c(C)c1C(=O)Nc1cccc([S@@](C)(=O)=NC(=O)[C@@H]2C[C@H](O)CN2)c1 [Example 27D, 2-((6-fluoro-2-methylpyridin-3-yl)oxy)-N-(3-((R)—N-((2S,4S)-4-hydroxypyrrolidine-2-carbonyl)-S-methylsulfonimidoyl)phenyl)-4-methyl-5-(trifluoromethyl)nicotinamide] the IC50 [1] was < 5 nM and the IC50 [2] was < 5 nM.
With Cc1nc(F)ccc1Oc1ccc(C(F)(F)F)c(C)c1C(=O)Nc1cccc([S@@](C)(=O)=NC(=O)[C@@H](C)O)c1 [Example 28B] the IC50 [3] was < 5 nM and the IC50 [4] was < 5 nM.
For COc1cc(C#N)ccc1Oc1ncc(C(F)(F)F)c(C)c1C(=O)Nc1cccc(S(N)(=O)=O)c1 [Example 28C, 2-(4-cyano-2-methoxyphenoxy)-4-methyl-N-(3-sulfamoylphenyl)-5-(trifluoromethyl)nicotinamide], the IC50 [5] was < 5 nM and the IC50 [6] was < 5 nM.
Cc1nc(F)ccc1Oc1nnc(C(F)(F)F)c(C)c1C(=O)Nc1cccc([S@@](C)(=O)=NC(=O)CN2CC(F)(F)C2)c1 [Example 28D, (R)—N-(3-(N-(2-(3,3-difluoroazetidin-1-yl)acetyl)-S-methylsulfonimidoyl)phenyl)-3-((6-fluoro-2-methylpyridin-3-yl)oxy)-5-methyl-6-(trifluoromethyl)pyridazine-4-carboxamide] was tested, and the IC50 [1] was < 5 nM and the IC50 [2] was < 5 nM.
In the case of CNCC(=O)N=[S@](C)(=O)c1cccc(NC(=O)c2cc(Cl)c(C(F)(F)F)cc2Oc2ccc(F)nc2C)c1 [Example 29B], the IC50 [3] is reported as < 5 nM and the IC50 [4] is reported as < 5 nM.
In the case of Cc1cc(C#N)ccc1Oc1cc(C(F)(F)F)nnc1C(=O)Nc1cccc(S(C)(=O)=O)c1 [Example 29C, 4-(4-cyano-2-methylphenoxy)-N-(3-(methylsulfonyl)phenyl)-6-(trifluoromethyl)pyridazine-3-carboxamide], the IC50 [5] is reported as > 200 nM and the IC50 [6] is reported as > 200 nM.
In the case of Cc1nc(F)ccc1Oc1ncc(C(F)(F)F)c(C)c1C(=O)Nc1cccc([S@@](C)(=O)=NC(=O)CN2CC(F)(F)C2)c1 [Example 29D, (R)—N-(3-(N-(2-(3,3-difluoroazetidin-1-yl)acetyl)-S-methylsulfonimidoyl)phenyl)-2-((6-fluoro-2-methylpyridin-3-yl)oxy)-4-methyl-5-(trifluoromethyl)nicotinamide], the IC50 [1] is reported as < 5 nM and the IC50 [2] is reported as < 5 nM.
For COc1c(Oc2cc(C(F)(F)F)nnc2C(=O)Nc2cccc([S+](C)[O-])c2)ccc(F)c1F (stereo not drawn) [Example 30C, 4-(3,4-difluoro-2-methoxyphenoxy)-N-(3-(methylsulfinyl)phenyl)-6-(trifluoromethyl)pyridazine-3-carboxamide], the IC50 [5] was > 200 nM and the IC50 [6] was > 200 nM.
With COc1c(Oc2cc(C(F)(F)F)nnc2C(=O)Nc2cccc(S(C)(=N)=O)c2)ccc(F)c1F (stereo not drawn) [Example 31C, 4-(3,4-difluoro-2-methoxyphenoxy)-N-(3-(S-methylsulfonimidoyl)phenyl)-6-(trifluoromethyl)pyridazine-3-carboxamide] the IC50 [5] was 100 to 200 nM and the IC50 [6] was 100 to 200 nM.
Compound COc1c(Oc2cc(C(F)(F)F)nnc2C(=O)Nc2cccc(S(C)(=O)=O)c2)ccc(F)c1F [Example 32C, 4-(3,4-difluoro-2-methoxyphenoxy)-N-(3-(methylsulfonyl)phenyl)-6-(trifluoromethyl)pyridazine-3-carboxamide] has an IC50 [5] of 50 to 100 nM and an IC50 [6] of 50 to 100 nM.
With Cc1nc(F)ccc1Oc1cc(C(F)(F)F)cc(F)c1C(=O)Nc1ccnc([S@@](C)(=N)=O)c1 [Example 33A] the IC50 [7] was 5 to 50 nM and the IC50 [8] was 5 to 50 nM.
With CN=[S@](C)(=O)c1cccc(NC(=O)c2c(Oc3ccc(F)nc3C)ncc(C(F)(F)F)c2C)c1 [Example 33C, (R)—N-(3-(N,S-dimethylsulfonimidoyl)phenyl)-2-((6-fluoro-2-methylpyridin-3-yl)oxy)-4-methyl-5-(trifluoromethyl)nicotinamide] the IC50 [5] was 5 to 50 nM and the IC50 [6] was < 5 nM.
Cc1nc(F)ccc1Oc1cc(C(F)(F)F)c(Cl)c(F)c1C(=O)Nc1ccnc([S@@](C)(=N)=O)c1 [Example 34A] was tested, and the IC50 [7] was < 5 nM and the IC50 [8] was < 5 nM.
With COc1cc(C#N)ccc1Oc1cc(C(F)(F)F)nnc1C(=O)Nc1cccc(S(C)(=N)=O)c1 (stereo not drawn) [Example 34C, 4-(4-cyano-2-methoxyphenoxy)-N-(3-(S-methylsulfonimidoyl)phenyl)-6-(trifluoromethyl)pyridazine-3-carboxamide] the IC50 [5] was > 200 nM and the IC50 [6] was > 200 nM.
Work on C[S@@](=N)(=O)c1cc(NC(=O)c2cc(Cl)c(C(F)(F)F)cc2OCC(F)(F)F)ccn1 [Example 35A] yielded an IC50 (P1 measurement, resting state block, holding potential −120 mV, first set of compounds, read-out: P1 (IC50, resting state block)) of 50 to 100 nM and an IC50 (P2 measurement, inactivated state block, inactivation step −35 mV 10 sec, first set of compounds, read-out: P2 (IC50, inactivated state block)) of 50 to 100 nM.
